Test results: patent US20260027087A1, “DOSING REGIMENS COMPRISING A KAT6 INHIBITOR FOR THE TREATMENT OF CANCER” (PFIZER INC., priority 2022, published 2026)

[1] = as of 23 Mar. 2022, 31 patients dosed

Question: For `COc1ccccc1S(=O)(=O)Nc1noc2cc(Cn3cccn3)cc(OC)c12` [COMPOUND A, 2-Methoxy-N-{4-methoxy-6-[(1H-pyrazol-1-yl)methyl]-1,2-benzoxazol-3-yl}benzene-1-sulfonamide], which “COVID-19, all-causality SAE, by patient frequency” value (as of 23 Mar. 2022) is on record?
Answer: 2

Question: And the “COVID-19, all-causality Grade 3 TEAE” value [1]?
Answer: 3.2%

Question: And the “Pneumonitis, Grade 5 TEAE” value [1]?
Answer: 3.2%

Question: And the “Pneumonitis, Grade 5 treatment-related AE” value [1]?
Answer: 3.2%

Question: What about the “Urinary tract infection, all-causality Grade 3 TEAE” value [1] of the same compound?
Answer: 3.2%

Question: What about the MTD (cut-off 30 Sep. 2022) of the same compound?
Answer: not identified

Question: What about the “Alanine aminotransferase increased, all-causality Grade 3 TEAE” value (human, in vivo) of the same compound?
Answer: 6.5%

Question: What about the “Alanine aminotransferase increased, all-causality TEAE, any grade” value (human, in vivo) of the same compound?
Answer: 25.8%

Question: What about the “Anaphylactic reaction, all-causality Grade 3 TEAE” value (human, in vivo) of the same compound?
Answer: 3.2%

Question: And the “Anemia, Grade 3 treatment-related AE” value (human, in vivo)?
Answer: 16.1%

Question: And the “Anemia, TRAE, any grade” value (human, in vivo)?
Answer: 54.8%

Question: What about the “Anemia, all-causality Grade 3 TEAE” value (human, in vivo) of the same compound?
Answer: 16.1%

Question: What about the “Anemia, all-causality TEAE, any grade” value (human, in vivo) of the same compound?
Answer: 54.8%

Question: What about the “Aspartate aminotransferase increased, all-causality TEAE, any grade” value (human, in vivo) of the same compound?
Answer: 29.0%

Question: And the “Bone pain, all-causality SAE, by patient frequency” value (human, in vivo)?
Answer: 1

Question: And the “Diarrhea, Grade 3 treatment-related AE” value (human, in vivo)?
Answer: 3.2%

Question: And the “Diarrhea, TRAE, any grade” value (human, in vivo)?
Answer: 29.0%

Question: What about the “Diarrhea, all-causality Grade 3 TEAE” value (human, in vivo) of the same compound?
Answer: 3.2%

Question: What about the “Diarrhea, all-causality TEAE, any grade” value (human, in vivo) of the same compound?
Answer: 35.5%

Question: And the “Dysgeusia, TRAE, any grade” value (human, in vivo)?
Answer: 80.6%

Question: What about the “Dysgeusia, all-causality TEAE, any grade” value (human, in vivo) of the same compound?
Answer: 83.9%

Question: What about the “Dysphagia, all-causality SAE, by patient frequency” value (human, in vivo) of the same compound?
Answer: 1

Question: What about the “Embolism, Grade 3 treatment-related AE” value (human, in vivo) of the same compound?
Answer: 3.2%

Question: And the “Embolism, all-causality Grade 3 TEAE” value (human, in vivo)?
Answer: 3.2%

Question: What about the “Embolism, all-causality SAE, by patient frequency” value (human, in vivo) of the same compound?
Answer: 1

Question: And the “Fatigue, all-causality Grade 3 TEAE” value (human, in vivo)?
Answer: 3.2%

Question: What about the “Fatigue, all-causality TEAE, any grade” value (human, in vivo) of the same compound?
Answer: 25.8%

Question: What about the “Flank pain, all-causality Grade 3 TEAE” value (human, in vivo) of the same compound?
Answer: 3.2%

Question: What about the “Flank pain, all-causality SAE, by patient frequency” value (human, in vivo) of the same compound?
Answer: 1

Question: What about the “Grade 4 treatment-related AEs” value (human, in vivo) of the same compound?
Answer: no Grade 4 treatment-related AEs

Question: And the “Haematuria, all-causality Grade 3 TEAE” value (human, in vivo)?
Answer: 3.2%

Question: And the “Haematuria, all-causality SAE, by patient frequency” value (human, in vivo)?
Answer: 1

Question: What about the “Hypercalcaemia, Grade 4 TEAE” value (human, in vivo) of the same compound?
Answer: 3.2%

Question: And the “Hypotension, all-causality Grade 3 TEAE” value (human, in vivo)?
Answer: 6.5%

Question: What about the “Hypotension, all-causality SAE, by patient frequency” value (human, in vivo) of the same compound?
Answer: 2

Question: What about the “Hypotension, treatment-related SAE, by patient frequency” value (human, in vivo) of the same compound?
Answer: 1

Question: What about the “Lymphocyte count decreased, Grade 3 treatment-related AE” value (human, in vivo) of the same compound?
Answer: 3.2%

Question: What about the “Lymphocyte count decreased, all-causality Grade 3 TEAE” value (human, in vivo) of the same compound?
Answer: 6.5%

Question: What about the “Neutrophil count decreased/Neutropenia, Grade 3 treatment-related AE” value (human, in vivo) of the same compound?
Answer: 29.1%

Question: What about the “Neutrophil count decreased/Neutropenia, TRAE, any grade” value (human, in vivo) of the same compound?
Answer: 51.6%

Question: And the “Neutrophil count decreased/Neutropenia, all-causality Grade 3 TEAE” value (human, in vivo)?
Answer: 29.1%

Question: And the “Neutrophil count decreased/Neutropenia, all-causality TEAE, any grade” value (human, in vivo)?
Answer: 51.6%

Question: And the “Platelet count decreased, TRAE, any grade” value (human, in vivo)?
Answer: 22.6%

Question: And the “Platelet count decreased, all-causality TEAE, any grade” value (human, in vivo)?
Answer: 22.6%

Question: And the “Pneumonitis, all-causality SAE, by patient frequency” value (human, in vivo)?
Answer: 1

Question: What about the “Pneumonitis, treatment-related SAE, by patient frequency” value (human, in vivo) of the same compound?
Answer: 1

Question: What about the “Pulmonary embolism, all-causality Grade 3 TEAE” value (human, in vivo) of the same compound?
Answer: 3.2%

Question: And the “Thrombocytopenia, Grade 3 treatment-related AE” value (human, in vivo)?
Answer: 3.2%

Question: And the “Thrombocytopenia, all-causality Grade 3 TEAE” value (human, in vivo)?
Answer: 3.2%

Question: And the “White blood cell count decreased, Grade 3 treatment-related AE” value (human, in vivo)?
Answer: 9.7%

Question: What about the “White blood cell count decreased, TRAE, any grade” value (human, in vivo) of the same compound?
Answer: 29.0%

Question: What about the “White blood cell count decreased, all-causality Grade 3 TEAE” value (human, in vivo) of the same compound?
Answer: 9.7%

Question: What about the “White blood cell count decreased, all-causality TEAE, any grade” value (human, in vivo) of the same compound?
Answer: 29.0%

Question: What about the “all-causality SAEs, Total Number of Cases” value (human, in vivo) of the same compound?
Answer: 9

Question: And the “all-causality SAEs, Total Number of Subjects” value (human, in vivo)?
Answer: 8

Question: What about the “all-causality SAEs, Total Number of events” value (human, in vivo) of the same compound?
Answer: 10

Question: And the “patients with at least one TEAE” value (human, in vivo)?
Answer: 31 patients

Question: And the “patients with at least one treatment-related adverse event (TRAE)” value (human, in vivo)?
Answer: 31 patients

Question: And the “severity of TRAEs” value (human, in vivo)?
Answer: majority of TRAEs were G1-2

Question: And the “treatment-related SAEs, Total Number of Cases” value (human, in vivo)?
Answer: 2

Question: And the “treatment-related SAEs, Total Number of Subjects” value (human, in vivo)?
Answer: 2

Question: And the “treatment-related SAEs, Total Number of events” value (human, in vivo)?
Answer: 2

Question: And the RDE (human, in vivo, 28 days)?
Answer: 5 mg QD

Question: And the “Recommended dose for expansion (RDE)” value (human, in vivo, 28 days)?
Answer: 5 mg QD

Question: What about the “kind of DLTs” value (human, in vivo, 28 days) of the same compound?
Answer: Grade 3 neutropenia
